Activity and IC50 data for 13 compounds are collected here from patent EP3638670B1, “SUBSTITUTED PYRROLOPYRIDINE-DERIVATIVES AS MAP4K1 MODULATORS FOR THE TREATMENT OF CANCER DISEASES” (Bayer Pharma Aktiengesellschaft, priority 2017, dated 2018).

For assay [1], the system named is pSer376-SLP-76. The assay is described as follows: Phosphorylation assay in human cell line (pSer376-SLP-76, capillary electrophoresis). Format: cell-based. Particulars: 0.5 h, Jurkat E6.1 cells overexpressing FLAG-tagged SLP-76, a-CD3 (OKT3) stimulation, 30 min at 37 °C; for activity at 10 µM: 10µM compound, read-out: % amount of pSer376-SLP-76 @ 10µM; for activity at 20 µM: 20µM compound, read-out: % amount of pSer376-SLP-76 @ 20µM. As for the experimental part: Phosphorylation assays were carried out in Jurkat E6.1 cells from American Type Culture Collection (ATCC) stably overexpressing human FLAG-tagged SLP-76 (proprietary). Cultured cells were kept in RPMI 1640 medium supplemented with 1% FCS at a cell density of 2x 10e6/mL 24h prior compound testing. Starved cells were simultaneously treated with 350 ng/mL a-CD3 antibody (clone OKT3. ebioscience #16-0037-85. plate-bound) and test compound for 30 min at 37 °C. Applied compounds were tested at either fixed concentration of 10 µmol/L and 20 µmol/L or in a 8 point dose response titration of increase compound concentration with 10 nmol/L. 50 nmol/L. 100 nmol/L. 500 nmol/L. 1 µmol/L. 5 µmol/L. 10 µmol/L and 20 µmol/L in triplicates. The cells were washed once in phosphate-buffered saline (pH 7.4). Cells were lysed using a lysis buffer containing 50 mmol/L Tris-CI (pH 7.5). 150 mM NaCl. 2 mM EDTA. 1% Triton-X 100. 0.5 % Na-DOC. 0.1% SDS. 1/10 complete mini protease inhibitor cocktail (Roche #11836170001) and 1/10 PhosSTOP phosphatase inhibitor cocktail (Roche #04906837001). A total of 1.25 µg cell lysate was analyzed by capillary electrophoresis using the Peggy Sue™ System (proteinsimple® San Jose. CA USA) with a 12-230kDa sizebased master kit with split buffer / a-rabbit-HRP #PS-MK18 / a-mouse-HRP #PS-MK19 according to manufacture's protocol. Probe antibodies used were a rabbit monoclonal antibody supernatant raised against human phospho-Ser376-SLP-76 peptide (proprietary) and for mormalization an a-alpha-Tubulin. mouse monoclonal antibody (Sigma #T9026). As control for maximal effect (max control. which represent the maximally possible inhibition of pSer376-SLP-76 by a test compound) cells with no a-CD3 (clone OKT3. ebioscience #16-0037-85. plate-bound) and no test compound treatment were used. Cells with a-CD3 treatment only were used as negative control (min control. which represent the minimally possible inhibition of pSer376-SLP-76 by a test compound)
AUC values of each respective test sample were normalized using the AUC of housekeeping gene alpha-Tubulin and AUC of pSer376-SLP-76 of the min control. The percentage of the amount of pSer-SLP-76 in the treatment samples was calculated using the max control and min control values of the respective Peggy Sue™ run. Table 3: Measured % amount of pSer376-SLP-76 of compound

In assay [2] the target is T1, MAP4K1 (Homo sapiens, UniProt Q92918).
T1 construct: A recombinant fusion protein of N-terminal GST and full-length human; made in house; host or cells: baculovirus-infected SF9 insect cells
The assay is described as follows: TR-FRET-based binding competition assay (Tracer 222, GST-fusion protein). Particulars: inhibition of binding of Tracer 222 (15 nM) to GST-fusion protein (1 nM), 30 min at 22°C. From the text:
The ability of the compounds of the present invention to inhibit the binding of an Alexa647-labelled ATP-competitive kinase inhibitor to a Glutathione-S-transferase- (GST-) fusion protein was quantified employing the TR-FRET-based binding competition assay as described in the following paragraphs.
A recombinant fusion protein of N-terminal GST and full-length human , expressed by baculovirus infected SF9 insect cells and purified by Glutathione Sepharose affinity chromatography, was used as GST- fusion protein. Tracer 222 from Invitrogen (catalogue no. PR9198A) was used as Alexa647-labelled ATP-competitive kinase inhibitor. For the assay 50 nl of a 100fold concentrated solution of the test compound in DMSO was pipetted into either a black low volume 384well microtiter plate or a black 1536well microtiter plate (both Greiner Bio-One, Frickenhausen, Germany), 3 µl solution of Tracer 222 (25 nM => final concentration in 5 µl assay volume is 15 nM) in aqueous assay buffer [25 mM Tris/HCI pH 7.5, 10 mM MgCl2, 5 mM β-glycerolphosphate, 2.5 mM dithiothreitol, 0.5 mM ethylene glycol-bis(2-aminoethylether)-N,N,N',N'-tetraacetic acid [EGTA], 0.5 mM sodium orthovanadate, 0.01 % (w/v) bovine serum albumin [BSA], 0.005% (w/v) Pluronic F-127 (Sigma)] were added. Then the binding competition was started by the addition of 2 µl of a solution of the GST- fusion protein (2.5 nM => final conc. in the 5 µl assay volume is 1 nM) and of Anti-GST-Tb (1.25 nM => final conc. in the 5 µl assay volume is 0.5 nM), a Lumi4®-Tb Cryptate-conjugated anti-GST-antibody from Cisbio Bioassays (France), in assay buffer.
The resulting mixture was incubated 30 min at 22°C to allow the formation of a complex between the Tracer 222, the fusion protein and Anti-GST-Tb. Subsequently the amount of this complex was evaluated by measurement of the resonance energy transfer from the Tb-cryptate to the Tracer 222. Therefore, the fluorescence emissions at 620 nm and 665 nm after excitation at 350 nm were measured in a TR-FRET reader, e.g. a Pherastar (BMG Labtechnologies, Offenburg, Germany) or a Viewlux (Perkin-Elmer). The ratio of the emissions at 665 nm and at 622 nm was taken as the measure for the amount of the complex. The data were normalised (assay reaction without inhibitor = 0 % inhibition, all other assay components but GST- fusion protein = 100 % inhibition). […] Table 1: Measured IC50 values of compounds regarding inhibition
On the technique in general: TR-FRET usually uses a lanthanide donor and a delayed reading to cut background.

Molecules are shown by their SMILES.

T1 sequence (Q92918 whole entry, the tested form may be a part): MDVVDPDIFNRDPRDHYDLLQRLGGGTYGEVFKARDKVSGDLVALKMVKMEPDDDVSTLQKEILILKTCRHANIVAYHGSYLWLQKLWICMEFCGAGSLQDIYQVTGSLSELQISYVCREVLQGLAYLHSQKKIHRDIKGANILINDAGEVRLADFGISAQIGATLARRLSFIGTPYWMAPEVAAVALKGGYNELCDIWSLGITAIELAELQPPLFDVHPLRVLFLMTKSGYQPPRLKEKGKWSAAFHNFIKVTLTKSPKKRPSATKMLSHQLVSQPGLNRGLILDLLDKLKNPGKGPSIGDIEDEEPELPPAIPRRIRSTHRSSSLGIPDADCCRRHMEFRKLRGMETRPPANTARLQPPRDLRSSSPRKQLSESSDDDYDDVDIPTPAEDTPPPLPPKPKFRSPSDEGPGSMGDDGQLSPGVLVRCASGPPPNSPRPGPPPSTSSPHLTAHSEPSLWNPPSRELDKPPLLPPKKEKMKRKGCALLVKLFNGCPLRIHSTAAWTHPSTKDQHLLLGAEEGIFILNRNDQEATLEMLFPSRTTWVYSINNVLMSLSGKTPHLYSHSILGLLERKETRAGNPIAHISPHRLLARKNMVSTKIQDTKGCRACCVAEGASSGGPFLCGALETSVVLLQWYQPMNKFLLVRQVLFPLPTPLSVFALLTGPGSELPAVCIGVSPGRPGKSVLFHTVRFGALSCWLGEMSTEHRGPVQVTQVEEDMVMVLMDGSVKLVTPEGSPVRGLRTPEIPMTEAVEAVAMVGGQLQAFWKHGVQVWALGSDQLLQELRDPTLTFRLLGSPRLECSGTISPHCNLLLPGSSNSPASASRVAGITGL

In general, IC50 refers to the concentration at which inhibition is half-maximal. A low value points to inhibition by little substance. As for `O=C(NCCN1CCOCC1)Nc1ccc(Oc2ccnc3[nH]cc(C(F)(F)F)c23)c(C(F)(F)F)c1` [Example 1, 1-[2-(morpholin-4-yl)ethyl]-3-[3-(trifluoromethyl)-4-{[3-(trifluoromethyl)-1H-pyrrolo[2,3-b]pyridin-4-yl]oxy}phenyl]urea], in assay [1], the activity at 10 µM turned out to be 25.2% and the activity at 20 µM turned out to be 5.5%. The compound further showed an IC50 in assay [2] of 0.0694 µM.
In the case of `O=C(NCCCN1CCOCC1)Nc1ccc(Oc2ccnc3[nH]cc(C(F)(F)F)c23)c(C(F)(F)F)c1` [Example 2, 1-[3-(morpholin-4-yl)propyl]-3-[3-(trifluoromethyl)-4-{[3-(trifluoromethyl)-1H-pyrrolo[2,3-b]pyridin-4-yl]oxy}phenyl]urea], in assay [1], the activity at 10 µM is 25.1% and the activity at 20 µM worked out at 6.5%. The half-inhibitory concentration (IC50) in assay [2] amounted to 0.0562 µM.
For `NC(=O)Nc1ccc(Oc2ccnc3[nH]cc(C(F)(F)F)c23)c(C(F)(F)F)c1` [Example 3, 1-[3-(trifluoromethyl)-4-{[3-(trifluoromethyl)-1H-pyrrolo[2,3-b]pyridin-4-yl]oxy}phenyl]urea], in that order: 21%, 2.6% and 0.0562 µM.
For `O=C(NCCCN1CCOCC1)Nc1cc(F)c(Oc2ccnc3[nH]cc(C(F)(F)F)c23)c(C(F)(F)F)c1` [Example 4, 1-[3-fluoro-5-(trifluoromethyl)-4-{[3-(trifluoromethyl)-1H-pyrrolo[2,3-b]pyridin-4-yl]oxy}phenyl]-3-[3-(morpholin-4-yl)propyl]urea], in that order: 17%, less than 1% and 0.065 µM.
For `O=C(NCCN1CCOCC1)Nc1cc(F)c(Oc2ccnc3[nH]cc(C(F)(F)F)c23)c(C(F)(F)F)c1` [Example 5, 1-[3-fluoro-5-(trifluoromethyl)-4-{[3-(trifluoromethyl)-1H-pyrrolo[2,3-b]pyridin-4-yl]oxy}phenyl]-3-[2-(morpholin-4-yl)ethyl]urea], in that order: 27.1%, less than 1% and 0.0646 µM.
Take `O=C(NCCCN1CCOCC1)Nc1ccc(Oc2ccnc3[nH]cc(Cl)c23)c(C(F)(F)F)c1` [Example 6, 1-{4-[(3-chloro-1H-pyrrolo[2,3-b]pyridin-4-yl)oxy]-3-(trifluoromethyl)phenyl}-3-[3-(morpholin-4-yl)propyl]urea]: in assay [1], the activity at 10 µM came out at 69.9% and the activity at 20 µM came out at 29.5%. The compound further returned a half-inhibitory concentration (IC50) in assay [2] of 0.158 µM.
On to `O=C(NCCN1CCOCC1)Nc1ccc(Oc2ccnc3[nH]cc(Cl)c23)c(C(F)(F)F)c1` [Example 7, 1-{4-[(3-chloro-1H-pyrrolo[2,3-b]pyridin-4-yl)oxy]-3-(trifluoromethyl)phenyl}-3-[2-(morpholin-4-yl)ethyl]urea], for which, in assay [1], the activity at 10 µM turned out to be 5.1% and the activity at 20 µM was less than 1%. For the same compound, in assay [2], the half-maximal inhibitory concentration (IC50) was 0.124 µM.
In the same order, the values of `NC(=O)Nc1ccc(Oc2ccnc3[nH]cc(Cl)c23)c(C(F)(F)F)c1` [Example 8, 1-{4-[(3-chloro-1H-pyrrolo[2,3-b]pyridin-4-yl)oxy]-3-(trifluoromethyl)phenyl}urea] are 92.7%, 73.6% and 0.188 µM.
Regarding `O=C(Nc1ccc(Oc2ccnc3[nH]cc(Cl)c23)c(C(F)(F)F)c1)Nc1cccnn1` [Example 9, 1-{4-[(3-chloro-1H-pyrrolo[2,3-b]pyridin-4-yl)oxy]-3-(trifluoromethyl)phenyl}-3-pyridazin-3-ylurea], the 50% inhibitory concentration (IC50) in assay [2] stood at 1.26 µM.
As for `Cc1ncc(NC(=O)Nc2ccc(Oc3ccnc4[nH]cc(Cl)c34)c(C(F)(F)F)c2)cn1` [Example 10, 1-{4-[(3-chloro-1H-pyrrolo[2,3-b]pyridin-4-yl)oxy]-3-(trifluoromethyl)phenyl}-3-(2-methylpyrimidin-5-yl)urea], in assay [1], the activity at 10 µM is 15.9% and the activity at 20 µM is less than 1%. Also, the IC50 in assay [2] turned out to be 0.171 µM.
Consider `COc1cc(NC(=O)NCCCN2CCOCC2)ccc1Oc1ccnc2[nH]cc(C(F)(F)F)c12` [Example 11, 1-(3-methoxy-4-{[3-(trifluoromethyl)-1H-pyrrolo[2,3-b]pyridin-4-yl]oxy}phenyl)-3-[3-(morpholin-4-yl)propyl]urea], for which, in assay [1], the activity at 10 µM amounted to 68.1% and the activity at 20 µM was determined as 53.8%. The compound also returned an IC50 in assay [2] of 0.315 µM.
Take `O=C(NCCCN1CCOCC1)Nc1ccc(Oc2ccnc3[nH]cc(C(F)(F)F)c23)c(OC(F)(F)F)c1` [Example 12, 1-[3-(morpholin-4-yl)propyl]-3-[3-(trifluoromethoxy)-4-{[3-(trifluoromethyl)-1H-pyrrolo[2,3-b]pyridin-4-yl]oxy}phenyl]urea]: in assay [1], the activity at 10 µM stood at 61.8% and the activity at 20 µM came to 23.9%. Besides, in assay [2], the IC50 is 0.469 µM.
Compound `O=C(NCCN1CCOCC1)Nc1ccc(Oc2ccnc3[nH]cc(C(F)(F)F)c23)c(OC(F)(F)F)c1` [Example 13, 1-[2-(morpholin-4-yl)ethyl]-3-[3-(trifluoromethoxy)-4-{[3-(trifluoromethyl)-1H-pyrrolo[2,3-b]pyridin-4-yl]oxy}phenyl]urea] showed a half-inhibitory concentration (IC50) in assay [2] of 0.439 µM.
